Source: PMC7416039 (Pharmacology Research & Perspectives, 2020)

Legend:
[1] = target: T1, CYP2B6 (Homo sapiens, UniProt P20813); assay: Direct inhibition of CYP isoforms in HLM
T1 sequence (P20813 1-491): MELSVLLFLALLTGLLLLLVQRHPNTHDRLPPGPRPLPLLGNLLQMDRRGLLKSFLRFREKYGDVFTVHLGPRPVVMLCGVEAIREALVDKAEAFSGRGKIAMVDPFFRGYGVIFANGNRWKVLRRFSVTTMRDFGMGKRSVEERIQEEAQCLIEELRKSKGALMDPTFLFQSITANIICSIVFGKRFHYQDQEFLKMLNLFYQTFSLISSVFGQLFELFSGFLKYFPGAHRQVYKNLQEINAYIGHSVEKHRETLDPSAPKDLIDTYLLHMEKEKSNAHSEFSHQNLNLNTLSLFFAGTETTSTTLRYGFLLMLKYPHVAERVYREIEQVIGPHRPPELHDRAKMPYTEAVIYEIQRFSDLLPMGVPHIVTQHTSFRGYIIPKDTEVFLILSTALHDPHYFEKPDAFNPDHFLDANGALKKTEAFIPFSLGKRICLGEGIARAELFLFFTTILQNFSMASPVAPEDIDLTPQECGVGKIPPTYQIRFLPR

[2] = Metabolism of secnidazole in human liver microsomes; type: in vitro ADME; conditions: human, human liver microsomes, pH 7.4
[3] = test system: human liver microsomes; assay: as above; type: in vitro ADME
[4] = target: T2, human aldehyde dehydrogenase 2 (ALDH2) (Homo sapiens, UniProt P05091); assay: Reversible inhibition of ALDH2; type: biochemical
T2 sequence (P05091 18-517): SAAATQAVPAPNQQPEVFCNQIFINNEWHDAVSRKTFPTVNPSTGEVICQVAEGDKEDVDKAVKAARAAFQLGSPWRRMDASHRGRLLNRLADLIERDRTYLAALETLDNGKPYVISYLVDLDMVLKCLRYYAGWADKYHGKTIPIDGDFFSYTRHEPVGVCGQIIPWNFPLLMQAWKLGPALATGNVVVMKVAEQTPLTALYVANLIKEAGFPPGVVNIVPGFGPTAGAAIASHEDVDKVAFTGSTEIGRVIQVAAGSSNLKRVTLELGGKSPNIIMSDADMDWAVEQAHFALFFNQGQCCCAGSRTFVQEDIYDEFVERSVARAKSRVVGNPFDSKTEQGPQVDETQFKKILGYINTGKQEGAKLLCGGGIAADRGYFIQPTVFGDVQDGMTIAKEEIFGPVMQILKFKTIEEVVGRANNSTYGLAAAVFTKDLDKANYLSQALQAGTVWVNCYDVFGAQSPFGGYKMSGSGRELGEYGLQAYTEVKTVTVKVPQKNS

[5] = target: CYP2D6 (Homo sapiens, UniProt P10635); assay: Direct inhibition of CYP isoforms in HLM
Sequence of CYP2D6 (P10635 whole entry, canonical isoform): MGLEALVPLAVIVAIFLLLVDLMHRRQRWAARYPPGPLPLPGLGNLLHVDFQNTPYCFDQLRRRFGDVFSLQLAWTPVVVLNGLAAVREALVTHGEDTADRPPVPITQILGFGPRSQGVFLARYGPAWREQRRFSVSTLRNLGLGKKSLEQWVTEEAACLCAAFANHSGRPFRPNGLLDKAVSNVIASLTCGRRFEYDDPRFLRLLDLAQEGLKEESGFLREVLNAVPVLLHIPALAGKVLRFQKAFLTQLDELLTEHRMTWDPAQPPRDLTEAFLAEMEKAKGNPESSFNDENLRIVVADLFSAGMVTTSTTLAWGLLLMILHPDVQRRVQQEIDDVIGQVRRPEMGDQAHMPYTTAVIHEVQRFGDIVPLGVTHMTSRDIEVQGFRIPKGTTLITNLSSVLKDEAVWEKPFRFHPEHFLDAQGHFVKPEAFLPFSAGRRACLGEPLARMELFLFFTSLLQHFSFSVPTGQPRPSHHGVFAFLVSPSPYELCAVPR

[6] = target: T3, CYP2C9 (Homo sapiens, UniProt P11712); assay: Direct inhibition of CYP isoforms in HLM
T3 sequence (P11712 whole entry, canonical isoform): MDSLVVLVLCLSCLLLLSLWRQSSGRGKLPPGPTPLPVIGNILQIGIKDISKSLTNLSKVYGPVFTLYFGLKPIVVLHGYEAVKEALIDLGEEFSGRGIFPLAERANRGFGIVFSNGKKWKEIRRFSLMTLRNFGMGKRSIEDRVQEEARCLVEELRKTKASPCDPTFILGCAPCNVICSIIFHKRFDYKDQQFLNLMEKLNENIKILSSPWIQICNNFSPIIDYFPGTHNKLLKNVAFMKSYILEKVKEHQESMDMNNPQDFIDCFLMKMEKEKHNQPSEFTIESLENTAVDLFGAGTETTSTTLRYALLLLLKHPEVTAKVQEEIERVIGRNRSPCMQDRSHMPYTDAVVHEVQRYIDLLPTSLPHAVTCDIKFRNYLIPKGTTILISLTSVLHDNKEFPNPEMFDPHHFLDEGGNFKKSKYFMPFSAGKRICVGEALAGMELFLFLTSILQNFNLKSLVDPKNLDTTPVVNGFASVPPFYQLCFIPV

[7] = target: T4, CYP2C8 (Homo sapiens, UniProt P10632); assay: Direct inhibition of CYP isoforms in HLM
T4 sequence (P10632 1-490): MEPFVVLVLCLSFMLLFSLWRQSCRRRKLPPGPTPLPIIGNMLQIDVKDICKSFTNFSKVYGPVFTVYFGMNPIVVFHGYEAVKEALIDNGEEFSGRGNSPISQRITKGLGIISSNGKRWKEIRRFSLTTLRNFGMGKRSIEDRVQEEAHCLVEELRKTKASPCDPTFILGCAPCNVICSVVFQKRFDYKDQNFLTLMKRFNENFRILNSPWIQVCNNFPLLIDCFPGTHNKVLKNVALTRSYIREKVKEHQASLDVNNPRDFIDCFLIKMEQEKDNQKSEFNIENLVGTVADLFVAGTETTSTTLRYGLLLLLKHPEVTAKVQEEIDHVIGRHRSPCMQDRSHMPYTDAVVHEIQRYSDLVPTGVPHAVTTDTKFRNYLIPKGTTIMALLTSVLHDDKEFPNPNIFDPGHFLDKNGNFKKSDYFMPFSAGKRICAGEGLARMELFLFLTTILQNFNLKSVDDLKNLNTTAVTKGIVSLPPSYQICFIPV

[8] = target: T4, CYP2C8; assay: Time-dependent inhibition of CYP isoforms in HLM
[9] = target: T5, CYP1A2 (Homo sapiens, UniProt P05177); assay: Direct inhibition of CYP isoforms in HLM
T5 sequence (P05177 1-516): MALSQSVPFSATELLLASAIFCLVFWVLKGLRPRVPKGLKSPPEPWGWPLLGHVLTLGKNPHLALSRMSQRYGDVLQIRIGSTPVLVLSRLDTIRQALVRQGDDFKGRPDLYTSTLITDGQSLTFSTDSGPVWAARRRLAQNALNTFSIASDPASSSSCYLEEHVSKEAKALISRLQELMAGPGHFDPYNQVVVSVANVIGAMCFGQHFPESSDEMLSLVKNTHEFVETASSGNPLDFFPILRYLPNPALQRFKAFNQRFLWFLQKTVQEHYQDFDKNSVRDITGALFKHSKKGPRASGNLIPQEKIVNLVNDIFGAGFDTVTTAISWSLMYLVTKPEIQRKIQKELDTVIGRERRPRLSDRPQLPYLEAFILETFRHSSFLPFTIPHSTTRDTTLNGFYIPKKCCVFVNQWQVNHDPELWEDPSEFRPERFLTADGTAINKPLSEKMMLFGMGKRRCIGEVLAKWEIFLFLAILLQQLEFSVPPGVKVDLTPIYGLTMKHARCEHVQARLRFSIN

[10] = target: T3, CYP2C9; assay: Time-dependent inhibition of CYP isoforms in HLM

Compound: Cc1ncc([N+](=O)[O-])n1CC(C)O (stereo not shown) [secnidazole]
- IC50 [1]: > 5 mM
- direct inhibition (in words) ([1]; HLM, CYP2B6): some clear concentration‐dependent inhibition at higher concentration
- Km [2]: > 6.4 mM
- metabolism in HLMs (in words) ([3]; concentrations up to 6400 µmol/L): very low metabolism
- Km ([3]; read-out: Km for M2 formation, rate linear with substrate concentration): > 6.4 mM
- IC50 [4]: 0.503 mM
- % Remaining ([4]; secnidazole 0.2 μmol/L): 94%
- NADH ([4]; secnidazole 0.2 μmol/L): 117 nmol/min/mg
- % Remaining ([4]; secnidazole 0.5 μmol/L): 90%
- NADH ([4]; secnidazole 0.5 μmol/L): 112 nmol/min/mg
- % Remaining ([4]; secnidazole 1.4 μmol/L): 90%
- NADH ([4]; secnidazole 1.4 μmol/L): 112 nmol/min/mg
- % Remaining ([4]; secnidazole 4.1 μmol/L): 100%
- NADH ([4]; secnidazole 4.1 μmol/L): 125 nmol/min/mg
- % Remaining ([4]; secnidazole 12.3 μmol/L): 110%
- NADH ([4]; secnidazole 12.3 μmol/L): 137 nmol/min/mg
- % Remaining ([4]; secnidazole 37 μmol/L): 96%
- NADH ([4]; secnidazole 37 μmol/L): 120 nmol/min/mg
- % Remaining ([4]; secnidazole 111.1 μmol/L): 79%
- NADH ([4]; secnidazole 111.1 μmol/L): 99 nmol/min/mg
- % Remaining ([4]; secnidazole 333.3 μmol/L): 63%
- NADH ([4]; secnidazole 333.3 μmol/L): 79 nmol/min/mg
- % Remaining ([4]; secnidazole 1000 μmol/L): 32%
- NADH ([4]; secnidazole 1000 μmol/L): 39 nmol/min/mg
- IC50 [5]: > 5 mM
- direct inhibition (in words) ([5]; HLM, CYP2D6): some clear concentration‐dependent inhibition at higher concentration
- IC50 [6]: > 5 mM
- IC50 [7]: > 5 mM
- IC50 [8]: > 0.5 mM
- IC50 [9]: > 5 mM
- IC50 [10]: > 0.5 mM
